We go through one compound from patent US11311609B2, “Regulating chimeric antigen receptors” (DANA-FARBER CANCER INSTITUTE, INC., priority 2017, dated 2022).

One experiment has as its target T1, FKBP12WT (Homo sapiens, UniProt P62942).
T1 construct: HA; expressed in transfected cells; host or cells: 293FT cells (CRBN-WT or CRBN-/-)
The experiment is described as follows: Immunoblot of wild type FKBP12 degradation in 293FT cells (CRBN-WT or CRBN-/-). In kind it is cell-based. To be noted: 4 hours. As to the method: FIG. 6 is an immunoblot of cells treated with bi-functional molecules described in the present invention.
The dTAG is predicated on the selectivity of FKBP* specific ligands over endogenous, wild type FKBP. […] An immunoblot of cells treated with bi-functional molecules described in the present invention was performed. 293FT cells (CRBN-WT or CRBN−/−) expressing either HA-tagged FKBP12WT or FKBP* were treated with indicated concentrations of dFKBP7 for 4 hours.
Isogenic 293FT cells (CRBN-WT or CRBN−/−) were engineered to express either FKBP12WT or FKBP*. Cells were treated with 100 nM of either dFKBP7 or dFKBP13 for 4 hours before lysates were prepared for western immunoblot analysis.
(In western blotting, separated proteins are transferred to a membrane and probed.)

For experiment [1], the system named is KRAS signaling (pMEK and pAKT). The experiment is described as follows: Immunoblot of downstream surrogates of KRAS signaling in NIH3T3 cells expressing FKBP*-KRASG12V. In kind it is cell-based. The following applies: NIH3T3 cells, N-terminal dTAG-KRAS; 500 nM, indicated time. How it is done: FIG. 19 is an immunoblot of NIH3T3 cells expressing KRASG12V allele fused to FKBP* in the N-terminus or C-terminus. Cells were treated with 500 nM dFKBP7 for the indicated time. Cells were harvested and immunoblotted to measure degradation of FKBP*-KRASG12V and downstream surrogates of KRAS signaling (e.g. pMEK and pAKT).
FIG. 20 is an immunoblot of NIH3T3 cells expressing FKBP* fused to the N-terminus of KRASG12V treated with 1 uM of the indicated dFKBP heterobifunctional compounds for 24 hours. Cells were harvested and immunoblotted to measure degradation of FKBP*-KRASG12V and downstream surrogates of KRAS signaling (e.g. pMEK and pAKT).
FIG. 21 is an immunoblot of NIH3T3 cells expressing FKBP* fused to the N-terminus of KRASG12V treated with the indicated concentrations of dFKBP13 for 24 hours. Cells were harvested and immunoblotted to measure degradation of FKBP*-KRASG12V and downstream surrogates of KRAS signaling (e.g. pMEK and pAKT).
FIG. 22 is an immunoblot of NIH3T3 cells expressing FKBP* fused to the N-terminus of KRASG12V treated with 1 uM dFKBP13 for the indicated time. Cells were harvested and immunoblotted to measure degradation of FKBP*-KRASG12V and downstream surrogates of KRAS signaling (e.g. pMEK and pAKT).
Cells were treated with 500 nM dFKBP7 for the indicated time. […]

The next experiment has as its system SMART-CAR. As to the kind of experiment: SMART-CAR expression in Jurkat T-cells by flow cytometry with HA-antibody. The class given is cell-based, human. To be noted: 4 hour pretreatment 250 nM, wash, retreatment with 250 nM dFKBP7; 1:1 co-culture. From the text: FIG. 27 is a histogram plot illustrating the ability to track SMART-CAR expression in Jurkat cells. SMART-CAR expressing Jurkat cells were stained with a HA-antibody and subsequently labelled with a secondary Alexa647 fluorescent antibody. Stained cells were subject to flow cytometry with excitation with a 647 nm laser and HA expression quantified via Alexa647 fluorescent signal (Example 24). The observed shift in signal illustrates the ability to track SMART-CAR expression in Jurkat T cells.
FIG. 31 are line plots tracking CD19 positive tumor cells and SMART-CAR expression levels as described in the experimental setup in FIG. 20 and described in Example 26. After the 4 hour pretreatment with 250 nM of dFKBP7, SMART-CAR expressing Jurkats were mixed in a 1:1 ratio with CD19 positive tumor cells (Daudi: top and Raji: bottom) in the presence (green line) or absence (blue line) of 250 nM of dFKBP7. […]
FIG. 27 illustrates the use of flow cytometry to monitor SMART-CAR protein expression in Jurkat T-cells. […] This allows for quantitative measurements of SMART-CAR protein expression levels.
SMART-CAR expressing Jurkat cells were pretreated with dFKBP7 at 250 nM for 4 hours to allow for maximal degradation of SMART-CAR. […] The two experimental arms were then mixed at a 1:1 ratio with CD19 positive tumor cells and CD19-positive tumor cells monitored by flow cytometry. […]
In general terms: Flow cytometry measures light scatter and fluorescence of single cells or particles in a stream.

T1 sequence (P62942 whole entry): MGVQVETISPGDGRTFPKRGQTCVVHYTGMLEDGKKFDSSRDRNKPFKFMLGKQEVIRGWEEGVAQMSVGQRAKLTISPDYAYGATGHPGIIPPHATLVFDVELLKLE

As for `CC[C@H](C(=O)N1CCCC[C@H]1C(=O)O[C@H](CCc1ccc(OC)c(OC)c1)c1cccc(OCC(=O)NCCCOCCOCCOCCCNC(=O)COc2cccc3c2C(=O)N(C2CCC(=O)NC2=O)C3=O)c1)c1cc(OC)c(OC)c(OC)c1` (stereo partly shown) [dFKBP7], the “Degradation of HA-tagged FKBP12WT (immunoblot)” value on FKBP12WT (293FT cells CRBN-WT or CRBN-/-, indicated concentrations) is recorded as “not FKBPWT”. The “Degradation of FKBP12WT or endogenous FKBP12 (immunoblot)” value on FKBP12WT (isogenic 293FT cells CRBN-WT or CRBN-/-, 100 nM) is “not FKBP12WT or endogenous FKBP12”. Moreover, the p-AKT signal entry in experiment [1] was “downstream decrease in p-AKT signal”. Moreover, the SMART-CAR expression entry in the experiment with SMART-CAR is given as “minimal”.
